Test results reported in patent US20230151069A1, “Cyclic Peptides” (LIFEARC, priority 2020, published 2023).

What was measured:
5XFAD mice = assay: Active immunisation, in vivo glucose metabolism by 18F-FDG-PET/MRI in 5XFAD mice; parameters: species or system mouse; conditions: immunized 5XFAD mice, FIG. 30
Protocol: 18F-FDG-PET/MRI was performed on 5xFAD mice as well as age matched C57Bl/6J wild type mice. Mice were fasted overnight and blood glucose levels were measured before tracer injection. 11.46 to 20.53 MBq (mean 16.81 MBq) 18F-FDG was injected intravenously into a tail vein with a maximum volume of 200 μl followed by an uptake period of 45 minutes. Mice were awake during the uptake process. PET scans were performed for 20 minutes using a small animal 1 Tesla nanoScan PET/MRI (Mediso, Hungary). Mice were anesthetized with isoflurane supplemented with oxygen during the scans and kept on a heated bed (37° C.). Respiratory rate was measured throughout the imaging process. […]
All images were analyzed using PMOD v3.9 (PMOD Technologies, Switzerland) as described before (Bouter et al). […] PET VOI statistics (kBq/cc) were generated for all brain areas and standardized uptake values (SUVs) were calculated [SUV=tissue activity concentration average (kBq/cc)×body weight (g)/injected dose (kBq)] for semi-quantitative analysis. SUVs of 18F-FDG-PET scans were corrected for measured blood glucose levels [SUVGIc=SUV x blood glucose level (mg/dl)]. […]
In vivo glucose metabolism on Alzheimer mice (5XFAD) as well as age matched C57Bl/6J wild type mice was analysed by 18F-FDG-PET/MRI imaging as described above.

Tg4-42 mice [1] = assay: Quantification of CA1 neuron numbers by unbiased stereology in Tg4-42 mice; format: in vivo, mouse; conditions: aged Tg4-42 mice
Protocol: (§1) Tg4-42 mice were immunized at 6 weeks of age for 12 weeks with antigen [Thioacetal bridged Abeta peptide 1-14—KLH conjugate; DAC*[…]*HH[Cys]-amide (*S—CH—S bridged)] emulsified in complete Freund's adjuvant (CFA), followed by booster doses of protein emulsified in incomplete Freund's adjuvant (IFA). Booster injections of antigen emulsified in IFA was administered at day 14, day 28, day 42, thereafter monthly (3 times after month 4, 5 and 6), after immunization with antigen/CFA emulsion. Mice were acclimated at our facility for at least 7 days before immunization. […]
Stereological analysis was performed as previously described (G. Antonios et al., Alzheimer therapy with an antibody against N-terminal Abeta 4-X and pyroglutamate Abeta 3-X. Scientific reports 5, 17338 (2015)). The hippocampal cell layer CA1 (Bregma −1.22 to −3.52 mm) was delineated on cresyl violet-stained sections and analysed with a stereology workstation (Olympus BX51 with a motorized specimen stage for automatic sampling), StereoInvestigator 7 (MicroBrightField, Williston, USA) and a 100x oil lens (NA=1.35).
(§2) The treatment effect of active immunization was assessed in 6.5 month old Tg4-42 mice on hippocampus-dependent learning and memory by the Morris water maze test (FIG. 31A) and by counting the total number of CA1 neurons in the hippocampus (FIG. 31B). […]

Tg4-42 mice [2] = assay: Spatial reference memory by Morris water maze in Tg4-42 mice; format: in vivo, mouse; conditions: aged Tg4-42 mice, FIG. 31A
Protocol: as §1, with “immunization. Mice were injected with antigen emulsified in CFA or IFA subcutaneously at two sites on the back, injecting 0.05 to 0.1 mL at each site (total of 0.1 to 0.2 mL per mouse).” for “immunization.”
Spatial reference memory in mice was evaluated using the Morris water maze (R. Morris, Developments of a water-maze procedure for studying spatial learning in the rat. J. Neurosci. Methods 11, 47-60 (1984)) as described previously (Y. Bouter et al., N-truncated amyloid beta (Abeta) 4-42 forms stable aggregates and induces acute and long-lasting behavioral deficits. Acta Neuropathol 126, 189-205 (2013)).
as §2

Which results are given for “DAC*FRHDSGYEC*HH[Cys]-amide (*S—CH—S bridged, cyclised via positions 3 and 12)”?
brain glucose metabolism (18F-FDG uptake) (5XFAD mice): significant rescue; loss / number of CA1 neurons (in words) (Tg4-42 mice [1]; FIG. 31B): significantly reduced loss of neurons; mean number (+SEM) of neurons in CA1 layer of hippocampus (Tg4-42 mice [1]; IgG1 treated control 128687+13035): 185858+39180; learning and memory deficits, Morris water maze probe trial (Tg4-42 mice [2]; listed as 3-12 linked A61-14 cyclic peptide): substantial rescue of learning and memory deficits; learning and memory deficits, Morris water maze probe trial (Tg4-42 mice [2]; listed as cylised Aβ peptide): rescued memory deficits
